Results on ten compounds are retold here after patent US10294234B2, “HIV inhibitor compounds” (priority 2017, dated 2019).

For data set [1], the system named is HIV-1 (IIIB) in MT-4 cells. In words: MT-4 HIV assay. Type of data set: cell-based. Particulars: Human immunodeficiency virus 1, MT4, 120 h. A digest of the protocol:
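MT-4 cells infected with HIV-1 IIIB (1:250 stock dilution) were incubated with 1:3 serially diluted compounds in RPMI with 10% FBS for 5 days at 37 °C. Cell Titer Glo luminescence was the readout. Plates included mock-infected wells, no-drug wells and 5 uM AZT controls.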

How the values of data set [2] were obtained:
Liver Microsomal Stability Protocol
Test compounds and one control compound (verapamil) were tested in 3 different species in duplicate sets.
Test compound concentration: 1 uM; Protein concentration: 0.5 mg/mL (for dog, rat, and human liver microsomes); Cofactor: NADPH-Regenerating system (NRS) solution; Time-points: 2, 12, 25, 45, and 65 minutes.
Reaction composition (in each incubation well) contains:
After plates were vortexed, they were centrifuged for 30 minutes to remove proteins. About 100 μL supernatant was removed to a new plate and diluted with 150 μL water. About 20 μL of the mixture was injected into LC/MS/MS system to monitor the compound's response. In vitro measured t1/2 was used to calculate Clint values.

[3] abbreviates: HIV-1 (IIIB), MT-4 cells, 5 days, Cell Titer Glo, read-out: EC50.
Setting [4] is: human liver microsomes 0.5 mg/mL, 1 uM compound, NADPH.
[5] abbreviates: rat liver microsomes 0.5 mg/mL, 1 uM compound, NADPH.

Read-outs that look alike come from different tables or passages of the source. Bounds are passed on as bounds.

For the compound `COC(=O)N[C@H](C(=O)N[C@@H](Cc1ccc(C#Cc2ccc(N3CC4CC(C3)N4C3COC3)nc2)cc1)[C@@H](O)CN(Cc1c(F)cc(-c2ccn(C3CC3)n2)cc1F)NC(=O)[C@@H](NC(=O)OC)C(C)(C)C(F)(F)F)C(C)(C)C(F)(F)F` [Example 40, Methyl ((5S,8S,9S,14S)-11-(4-(1-cyclopropyl-1H-pyrazol-3-yl)-2,6-difluorobenzyl)-16,16,16-trifluoro-9-hydroxy-15,15-dimethyl-8-(4-((6-(6-(oxetan-3-yl)-3,6-diazabicyclo[3.1.1]heptan-3-yl)pyridin-3-yl)ethynyl)benzyl)-3,6,13-trioxo-5-(1,1,1-trifluoro-2-methylpropan-2-yl)-2-oxa-4,7,11,12-tetraazahexadecan-14-yl)carbamate], the EC50 (in general, the concentration giving half of the maximal effect) in data set [1] (setting [3]) was determined as 3.89 nM. Also, the “Human Pred Cl.” value in data set [2] (human, microsomes) is 0.13 L/H/kg. For the same compound, the “Rat. Pred. Cl.” value in data set [2] (rat, microsomes) is 0.5 L/H/kg.
In turn, `COC(=O)N[C@H](C(=O)N[C@@H](Cc1ccc(C#Cc2ccc(N3C[C@H]4C[C@@H]3CN4C3COC3)nc2)cc1)[C@@H](O)CN(Cc1c(F)cc(-c2ccn(CC(F)F)n2)cc1F)NC(=O)[C@@H](NC(=O)OC)C(C)(C)C(F)(F)F)C(C)(C)C(F)(F)F` [Example 43, Methyl ((5S,8S,9S,14S)-11-(4-(1-(2,2-difluoroethyl)-1H-pyrazol-3-yl)-2,6-difluorobenzyl)-16,16,16-trifluoro-9-hydroxy-15,15-dimethyl-8-(4-((6-((1R,4R)-5-(oxetan-3-yl)-2,5-diazabicyclo[2.2.1]heptan-2-yl)pyridin-3-yl)ethynyl)benzyl)-3,6,13-trioxo-5-(1,1,1-trifluoro-2-methylpropan-2-yl)-2-oxa-4,7,11,12-tetraazahexadecan-14-yl)carbamate] had an EC50 in data set [1] of 2.87 nM. In addition, the “Dog. Pred. Cl.” value in data set [2] (dog liver microsomes 0.5 mg/mL, 1 uM compound, NADPH) was determined as 1.66 L/H/kg. Besides, the “Human Pred Cl.” value in data set [2] (setting [4]) stood at 0.16 L/H/kg. In addition, the “Rat. Pred. Cl.” value in data set [2] (setting [5]) stood at 1.01 L/H/kg.
As for `COC(=O)N[C@H](C(=O)N[C@@H](Cc1ccc(C#Cc2ccc(N3CC4COCC(C3)N4C)nc2)cc1)[C@@H](O)CN(Cc1c(F)cc(-c2ccn(C(F)F)n2)cc1F)NC(=O)[C@@H](NC(=O)OC)C(C)(C)C(F)(F)F)C(C)(C)C(F)(F)F` [Example 44, Methyl ((5S,8S,9S,14S)-11-(4-(1-(difluoromethyl)-1H-pyrazol-3-yl)-2,6-difluorobenzyl)-16,16,16-trifluoro-9-hydroxy-15,15-dimethyl-8-(4-((6-(9-methyl-3-oxa-7,9-diazabicyclo[3.3.1]nonan-7-yl)pyridin-3-yl)ethynyl)benzyl)-3,6,13-trioxo-5-(1,1,1-trifluoro-2-methylpropan-2-yl)-2-oxa-4,7,11,12-tetraazahexadecan-14-yl)carbamate], the EC50 in data set [1] (setting [3]) amounted to 3.97 nM. Further, the “Human Pred Cl.” value in data set [2] (human, microsomes) was determined as 0.13 L/H/kg. Further, the “Rat. Pred. Cl.” value in data set [2] (rat, microsomes) is given as 2.54 L/H/kg.
Compound `COC(=O)N[C@H](C(=O)N[C@@H](Cc1ccc(C#Cc2ccc(N3C[C@H]4C[C@@H]3CN4C3COC3)nc2)cc1)[C@@H](O)CN(Cc1c(F)cc(-c2ccn(C3CC3)n2)cc1F)NC(=O)[C@@H](NC(=O)OC)C(C)(C)C(F)(F)F)C(C)(C)C(F)(F)F` [Example 45, Methyl ((5S,8S,9S,14S)-11-(4-(1-cyclopropyl-1H-pyrazol-3-yl)-2,6-difluorobenzyl)-16,16,16-trifluoro-9-hydroxy-15,15-dimethyl-8-(4-((6-((1R,4R)-5-(oxetan-3-yl)-2,5-diazabicyclo[2.2.1]heptan-2-yl)pyridin-3-yl)ethynyl)benzyl)-3,6,13-trioxo-5-(1,1,1-trifluoro-2-methylpropan-2-yl)-2-oxa-4,7,11,12-tetraazahexadecan-14-yl)carbamate] gave an EC50 in data set [1] of 2.56 nM. For the same compound, in data set [2] (setting [4]), the “Human Pred Cl.” value was under 0.11 L/H/kg. Also, the “Rat. Pred. Cl.” value in data set [2] (setting [5]) is recorded as 0.92 L/H/kg.
For the compound `COC(=O)N[C@H](C(=O)N[C@@H](Cc1ccc(C#Cc2ccc(N3CC4CCC(C3)[N+]4(C)C3COC3)nc2)cc1)[C@@H](O)CN(Cc1c(F)cc(-c2ccn(C(F)F)n2)cc1F)NC(=O)[C@@H](NC(=O)OC)C(C)(C)C(F)(F)F)C(C)(C)C(F)(F)F` (stereo partly drawn) [Example 48, 3-(5-((4-((2S,3S)-4-(1-(4-(1-(difluoromethyl)-1H-pyrazol-3-yl)-2,6-difluorobenzyl)-2-((S)-4,4,4-trifluoro-2-((methoxycarbonyl)amino)-3,3-dimethylbutanoyl)hydrazinyl)-3-hydroxy-2-((S)-4,4,4-trifluoro-2-((methoxycarbonyl)amino)-3,3-dimethylbutanamido)butyl)phenyl)ethynyl)pyridin-2-yl)-8-methyl-8-(oxetan-3-yl)-3,8-diazabicyclo[3.2.1]octan-8-ium], the EC50 in data set [1] (setting [3]) worked out at 114 nM. Further, the “Human Pred Cl.” value in data set [2] (human, microsomes) is given as under 0.11 L/H/kg. In data set [2] (rat, microsomes), the “Rat. Pred. Cl.” value is on record as 0.18 L/H/kg.
For `COC(=O)N[C@H](C(=O)N[C@@H](Cc1ccc(C#Cc2cnc(N3CC4CCC(C3)N4C3COC3)cn2)cc1)[C@@H](O)CN(Cc1c(F)cc(-c2ccn(C(F)F)n2)cc1F)NC(=O)[C@@H](NC(=O)OC)C(C)(C)C(F)(F)F)C(C)(C)C(F)(F)F` [Example 50, Methyl ((5S,8S,9S,14S)-11-(4-(1-(difluoromethyl)-1H-pyrazol-3-yl)-2,6-difluorobenzyl)-16,16,16-trifluoro-9-hydroxy-15,15-dimethyl-8-(4-((5-(8-(oxetan-3-yl)-3,8-diazabicyclo[3.2.1]octan-3-yl)pyrazin-2-yl)ethynyl)benzyl)-3,6,13-trioxo-5-(1,1,1-trifluoro-2-methylpropan-2-yl)-2-oxa-4,7,11,12-tetraazahexadecan-14-yl)carbamate], in that order: 4.31 nM, under 0.11 L/H/kg and under 0.18 L/H/kg.
On to `COC(=O)N[C@H](C(=O)N[C@@H](Cc1ccc(C#Cc2ccc(N3CC[N+]4([O-])CCOC[C@H]4C3)nc2)cc1)[C@@H](O)CN(Cc1c(F)cc(-c2ccn(C(F)F)n2)cc1F)NC(=O)[C@@H](NC(=O)OC)C(C)(C)C(F)(F)F)C(C)(C)C(F)(F)F` (stereo partly drawn) [Example 52, (9aR)-8-(5-((4-((2S,3S)-4-(1-(4-(1-(difluoromethyl)-1H-pyrazol-3-yl)-2,6-difluorobenzyl)-2-((S)-4,4,4-trifluoro-2-((methoxycarbonyl)amino)-3,3-dimethylbutanoyl)hydrazinyl)-3-hydroxy-2-((S)-4,4,4-trifluoro-2-((methoxycarbonyl)amino)-3,3-dimethylbutanamido)butyl)phenyl)ethynyl)pyridin-2-yl)octahydro-5H-pyrazino[2,1-c][1,4]oxazine 5-oxide], for which the EC50 in data set [1] (setting [3]) came to 8.15 nM. In data set [2] (setting [4]), the “Human Pred Cl.” value is 0.14 L/H/kg. For the same compound, the “Rat. Pred. Cl.” value in data set [2] (setting [5]) is on record as under 0.18 L/H/kg.
`COC(=O)N[C@H](C(=O)NN(Cc1c(F)cc(-c2ccccn2)cc1F)C[C@H](O)[C@H](Cc1ccc(C#Cc2ccc(N3CC4CCC(C3)N4C3COC3)nc2)cc1)NC(=O)[C@@H](NC(=O)OC)C(C)(C)C(F)(F)F)C(C)(C)C` [Example 53, Methyl ((5S,8S,9S,14S)-11-(2,6-difluoro-4-(pyridin-2-yl)benzyl)-9-hydroxy-15,15-dimethyl-8-(4-((6-(8-(oxetan-3-yl)-3,8-diazabicyclo[3.2.1]octan-3-yl)pyridin-3-yl)ethynyl)benzyl)-3,6,13-trioxo-5-(1,1,1-trifluoro-2-methylpropan-2-yl)-2-oxa-4,7,11,12-tetraazahexadecan-14-yl)carbamate]: in data set [1] (setting [3]), the EC50 was determined as 2.98 nM. The “Human Pred Cl.” value in data set [2] (human, microsomes) came out at 0.51 L/H/kg. Besides, the “Rat. Pred. Cl.” value in data set [2] (rat, microsomes) is 0.2 L/H/kg.
Taken in the same sequence, the figures for `COC(=O)N[C@H](C(=O)N[C@@H](Cc1ccc(C#Cc2ccc(N3C4CC3CN(C3COC3)C4)nc2)cc1)[C@@H](O)CN(Cc1c(F)cc(-c2cnn(C(F)F)c2)cc1F)NC(=O)[C@@H](NC(=O)OC)C(C)(C)C(F)(F)F)C(C)(C)C(F)(F)F` [Example 59, Methyl ((5S,8S,9S,14S)-11-(4-(1-(difluoromethyl)-1H-pyrazol-4-yl)-2,6-difluorobenzyl)-16,16,16-trifluoro-9-hydroxy-15,15-dimethyl-8-(4-((6-(3-(oxetan-3-yl)-3,6-diazabicyclo[3.1.1]heptan-6-yl)pyridin-3-yl)ethynyl)benzyl)-3,6,13-trioxo-5-(1,1,1-trifluoro-2-methylpropan-2-yl)-2-oxa-4,7,11,12-tetraazahexadecan-14-yl)carbamate] were 3.38 nM, 0.6 L/H/kg and 0.83 L/H/kg.
Taken in the same sequence, the figures for `COC(=O)N[C@H](C(=O)N[C@@H](Cc1ccc(C#Cc2ccc(N3CC4CC(C3)N4C3COC3)nc2)cc1)[C@@H](O)CN(Cc1c(F)cc(-c2cnn(C(F)F)c2)cc1F)NC(=O)[C@@H](NC(=O)OC)C(C)(C)C(F)(F)F)C(C)(C)C(F)(F)F` [Example 60, Methyl ((5S,8S,9S,14S)-11-(4-(1-(difluoromethyl)-1H-pyrazol-4-yl)-2,6-difluorobenzyl)-16,16,16-trifluoro-9-hydroxy-15,15-dimethyl-8-(4-((6-(6-(oxetan-3-yl)-3,6-diazabicyclo[3.1.1]heptan-3-yl)pyridin-3-yl)ethynyl)benzyl)-3,6,13-trioxo-5-(1,1,1-trifluoro-2-methylpropan-2-yl)-2-oxa-4,7,11,12-tetraazahexadecan-14-yl)carbamate] were 3.42 nM, 0.12 L/H/kg and 0.65 L/H/kg.
